The test concerns MX-1 breast xenograft, intrarenal, nude mice, tumor weight. Description: NCI In Vivo Anticancer Drug Screen. Data for tumor model Human Mammary Carcinoma MX-1 Xenograft (intrarenal inoculation) in NU/NU BALB/C (nude) mice. The conditions noted are these: endpoint: mean tumor weight change, higher = larger tumour. Put shortly:
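Compounds were given to mice carrying transplanted tumors, and tumor size or survival was measured. Each value is the treated-group measurement (T) divided by the vehicle-treated control-group measurement (C).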

Setting [1] is: dose: 75.0 mg/kg/injection, schedule: Q04DX003 (ip), vehicle: water.
Setting [2] is: dose: 150.0 mg/kg/injection, schedule: Q04DX003 (ip), vehicle: water.
The mark [3] stands for this setting: dose: 300.0 mg/kg/injection, schedule: Q04DX003 (ip), vehicle: water.

Where “and” joins values, the source holds several entries; their conditions need not be identical. Identical values can stand only once. Results filed as inconclusive are left out.

`Nc1ccn([C@@H](C=O)C[C@@H](C=O)CO)c(=O)n1`: the T/C is 76 % of control (dose: 75.0 mg/kg/injection, schedule: Q04DX003 (ip), vehicle: saline) and 124 % of control (dose: 150.0 mg/kg/injection, schedule: Q04DX003 (ip), vehicle: saline).

With `C[n+]1c(-c2ccc(/C=N/NC(=O)c3ccc(C(=O)N/N=C/c4ccc(-c5cn6ccccc6[n+]5C)cc4)cc3)cc2)cn2ccccc21`, the T/C is 92 % of control (dose: 75.0 mg/kg/injection, schedule: Q04DX003 (ip), vehicle: saline with Tween-80); 56 % of control (dose: 150.0 mg/kg/injection, schedule: Q04DX003 (ip), vehicle: saline with Tween-80); 65 % of control (dose: 300.0 mg/kg/injection, schedule: Q04DX003 (ip), vehicle: saline with Tween-80); 69 % of control (dose: 600.0 mg/kg/injection, schedule: Q04DX003 (ip), vehicle: saline with Tween-80).

As for `COC(=O)NC1C(C)OC(OC2C/C=C(/C)C3C=CC4C(OC5CC(OC6CC(OC7CC(O)C(O)C(C)O7)C(OC7CC(O)C(OC)C(C)O7)C(C)O6)C(O)C(C)O5)C(C)CC(C)C4C3(C)/C(O)=C3\C(=O)OC4(CC(C)C(CO)=CC4/C=C\2C)C3=O)CC1(C)[N+](=O)[O-]` (stereo not given), the T/C under setting [1] was 198 % of control, the T/C under setting [2] is 120 % of control and the T/C under setting [3] was 73 % of control.

Consider `CN(C)N=Nc1ccc(C(=O)O)cc1`, for which the T/C runs as follows: (dose: 100.0 mg/kg/injection, schedule: Q04DX003 (ip), vehicle: saline) 30 % of control; (dose: 200.0 mg/kg/injection, schedule: Q04DX003 (ip), vehicle: saline) 2 % of control; (dose: 400.0 mg/kg/injection, schedule: Q04DX003 (ip), vehicle: saline) -60 % of control.

`O=C(O)CC(=O)O.[NH-]C1CCCCC1[NH-].[Pt+2]` (stereo not given): the T/C reads like this: (dose: 10.0 mg/kg/injection, schedule: Q01DX010 (sc), vehicle: dextrose) 93 % of control; (dose: 20.0 mg/kg/injection, schedule: Q01DX010 (sc), vehicle: dextrose) 92 % of control; (dose: 30.0 mg/kg/injection, schedule: Q01DX010 (sc), vehicle: dextrose) -84 % of control; (dose: 40.0 mg/kg/injection, schedule: Q01DX010 (sc), vehicle: dextrose) 83 % of control; (dose: 60.0 mg/kg/injection, schedule: Q01DX010 (sc), vehicle: dextrose) -86 % of control; (dose: 80.0 mg/kg/injection, schedule: Q01DX010 (sc), vehicle: dextrose) 74 % of control.

On to `Cc1ccc(C2NC(=O)c3ccccc3N2)s1` (stereo not given), for which the T/C runs as follows: (dose: 600.0 mg/kg/injection, schedule: Q04DX003 (sc), vehicle: Klucel (hydroxypropylcellulose) (HPC)) 105 % of control; (dose: 1200.0 mg/kg/injection, schedule: Q04DX003 (sc), vehicle: Klucel (hydroxypropylcellulose) (HPC)) 106 % of control; (dose: 2400.0 mg/kg/injection, schedule: Q04DX003 (sc), vehicle: Klucel (hydroxypropylcellulose) (HPC)) 118 % of control; (dose: 4800.0 mg/kg/injection, schedule: Q04DX003 (sc), vehicle: Klucel (hydroxypropylcellulose) (HPC)) 97 % of control.

For `COc1cc([C@@H]2c3cc4c(cc3[C@@H](OC3OC5COC(C)OC5C(O)C3O)[C@H]3COC(=O)[C@H]23)OCO4)cc(OC)c1O` (stereo not given in full), the T/C (dose: 2.0 mg/kg/injection, schedule: Q01DX010 (ip), vehicle: saline) was 58 % of control and 62 % of control; the T/C (dose: 4.0 mg/kg/injection, schedule: Q01DX010 (ip), vehicle: saline) was 23 % of control and 30 % of control; the T/C (dose: 8.0 mg/kg/injection, schedule: Q01DX010 (ip), vehicle: saline) was 5 % of control and 20 % of control; the T/C (dose: 16.0 mg/kg/injection, schedule: Q01DX010 (ip), vehicle: saline) is 4 % of control and 6 % of control; the T/C (dose: 64.0 mg/kg/injection, schedule: Q04DX003 (ip), vehicle: saline) is 76 % of control.

Consider `CCOc1ccc(C(C)c2cc3c(cc2OC)OCO3)cc1` (stereo not given), for which the T/C reads like this: (dose: 150.0 mg/kg/injection, schedule: Q04DX003 (ip), vehicle: distilled water + Tween-80) 93 % of control; (dose: 300.0 mg/kg/injection, schedule: Q04DX003 (ip), vehicle: distilled water + Tween-80) 56 % of control; (dose: 600.0 mg/kg/injection, schedule: Q04DX003 (ip), vehicle: distilled water + Tween-80) 27 % of control.

Turning to `ClCCCN1CCCCC1CCl` (stereo not given), the T/C was 53 % of control (dose: 6.25 mg/kg/injection, schedule: Q04DX003 (sc), vehicle: saline); 3 % of control (dose: 12.5 mg/kg/injection, schedule: Q04DX003 (sc), vehicle: saline); -13 % of control (dose: 25.0 mg/kg/injection, schedule: Q04DX003 (sc), vehicle: saline).

As for `COc1cc(C(CC(C)=O)c2cc3c(cc2OC(C)=O)OCO3)cc(OC)c1OC` (stereo not given) (tested in a mixture with another compound), the T/C was 59 % of control (dose: 50.0 mg/kg/injection, schedule: Q04DX003 (ip), vehicle: saline with Tween-80); 103 % of control (dose: 72.0 mg/kg/injection, schedule: Q04DX003 (ip), vehicle: saline with Tween-80); 34 % of control (dose: 100.0 mg/kg/injection, schedule: Q04DX003 (ip), vehicle: saline with Tween-80); 110 % of control (dose: 120.0 mg/kg/injection, schedule: Q04DX003 (ip), vehicle: saline with Tween-80); 19 % of control and 20 % of control (dose: 200.0 mg/kg/injection, schedule: Q04DX003 (ip), vehicle: saline with Tween-80).

For `COc1cccc2c1[C@H]1CO[C@H]3C4C[C@H](C(=O)O)C([C@@H](C2)N13)N4C` (stereo not given in full), the T/C (dose: 1.25 mg/kg/injection, schedule: Q04DX003 (ip), vehicle: other) was 50 % of control; the T/C (dose: 2.5 mg/kg/injection, schedule: Q04DX003 (ip), vehicle: other) is 32 % of control and 33 % of control; the T/C (dose: 5.0 mg/kg/injection, schedule: Q04DX003 (ip), vehicle: other) was 16 % of control and 19 % of control; the T/C (dose: 7.5 mg/kg/injection, schedule: Q04DX003 (ip), vehicle: water) is 9 % of control; the T/C (dose: 10.0 mg/kg/injection, schedule: Q04DX003 (ip), vehicle: other) is 8 % of control and 9 % of control; the T/C (dose: 15.0 mg/kg/injection, schedule: Q04DX003 (ip), vehicle: water) was 2 % of control. Further, the T/C is 2 % of control (dose: 20.0 mg/kg/injection, schedule: Q04DX003 (ip), vehicle: other) and 2 % of control (dose: 30.0 mg/kg/injection, schedule: Q04DX003 (ip), vehicle: water).

For `CCCCNc1ccc2nnc(C)n2n1`, the T/C by setting is: (dose: 150.0 mg/kg/injection, schedule: Q04DX003 (ip), vehicle: DMSO) 94 % of control and 108 % of control; (dose: 300.0 mg/kg/injection, schedule: Q04DX003 (ip), vehicle: DMSO) 78 % of control and 88 % of control.

In the case of `Cc1cc(N(CCOS(C)(=O)=O)CCOS(C)(=O)=O)ccc1C=Nc1ccc(-c2nc(Cc3ccccc3)sc2C)cc1`, the T/C is -72 % of control (dose: 50.0 mg/kg/injection, schedule: Q01DX010 (sc), vehicle: Klucel (hydroxypropylcellulose) (HPC)); -60 % of control (dose: 100.0 mg/kg/injection, schedule: Q01DX010 (sc), vehicle: Klucel (hydroxypropylcellulose) (HPC)); -90 % of control (dose: 200.0 mg/kg/injection, schedule: Q01DX010 (sc), vehicle: Klucel (hydroxypropylcellulose) (HPC)); -86 % of control (dose: 400.0 mg/kg/injection, schedule: Q01DX010 (sc), vehicle: Klucel (hydroxypropylcellulose) (HPC)).

As to `O=C1CNC(=O)N1CN1CCOCC1`, the T/C is, setting by setting: (dose: 150.0 mg/kg/injection, schedule: Q04DX003 (ip), vehicle: Klucel (hydroxypropylcellulose) (HPC)) 83 % of control; (dose: 300.0 mg/kg/injection, schedule: Q04DX003 (ip), vehicle: Klucel (hydroxypropylcellulose) (HPC)) 89 % of control; (dose: 600.0 mg/kg/injection, schedule: Q04DX003 (ip), vehicle: Klucel (hydroxypropylcellulose) (HPC)) 81 % of control.

With `C#CCN(Cc1ccc2nc(N)[nH]c(=O)c2c1)c1ccc(C(=O)NC(CCC(=O)O)C(=O)O)cc1` (stereo not given), the T/C is, setting by setting: under setting [1], 111 % of control; under setting [2], 74 % of control; under setting [3], 72 % of control.

`NC(=O)CCC(N)C(=O)O` (stereo not given): the T/C (dose: 150.0 mg/kg/injection, schedule: Q04DX003 (ip), vehicle: suspension in saline) was 91 % of control; the T/C (dose: 300.0 mg/kg/injection, schedule: Q04DX003 (ip), vehicle: suspension in saline) was 102 % of control; the T/C (dose: 600.0 mg/kg/injection, schedule: Q04DX003 (ip), vehicle: suspension in saline) was 76 % of control; the T/C (dose: 1200.0 mg/kg/injection, schedule: Q04DX003 (ip), vehicle: suspension in saline) was 87 % of control.

In the case of `Oc1ccc(/C=N/Nc2nnc(N/N=C/c3ccc(O)cc3O)c3ccccc23)c(O)c1`, the T/C is, setting by setting: (dose: 25.0 mg/kg/injection, schedule: Q04DX003 (ip), vehicle: suspension in saline) 50 % of control; (dose: 50.0 mg/kg/injection, schedule: Q04DX003 (ip), vehicle: suspension in saline) 102 % of control; (dose: 100.0 mg/kg/injection, schedule: Q04DX003 (ip), vehicle: suspension in saline) 115 % of control.

The values are drawn from PubChem BioAssay AID298 (DTP/NCI, 2004).
